From patent US20260242390A1, “TOTAL SYNTHESES OF PORTIMINE A AND ANALOGUES THEREOF AS SMALL MOLECULE MODULATORS OF NMD3” (priority 2023, published 2026) come the findings set out here.

For one assay, the system named is HT-1080 fibrosarcoma. Briefly: HT-1080 Tumor Xenograft Model. The class given is in vivo, mouse. The following applies: 0.3 or 1.0 mg/kg, i.p. An excerpt:
FIG. 9. […] (A) Systemic Portimine A in MC38 Syngeneic Tumor Xenograft Model; and (B) Systemic Portimine A in HT-1080 Tumor Xenograft Model.
Preliminary cell-based target engagement studies, based on compound washout, indicates PA is fast acting with <1 hr of exposure resulting in minimal loss of potency. Cmax-driven pharmacology and facile synthetic access to material enabled the evaluation of PA in both a syngeneic (MC38 colon carcinoma) and a human metastatic mesenchymal (HT-1080 fibrosarcoma) mouse tumor xenograft model. […] Metabolic stability represents an opportunity for an additional IP position.
• 1) Portimine A and its functional analogs show stereo-selective acute toxicity in cancer cells (FIG. 1). […] (B) Structure of portimine related analogs: phenyl-portimine A (Ph-PA, 36) and epi-portimine A (ePA, 38). Structure of fully functionalized portimine A-based epimeric probe pair: portimine A-diazirine-alkyne (PA-DA, 35-2) and epi-portimine A-diazirine-alkyne (ePA-DA, 35-1). (C) Cell viability analysis of portimine A and analogs. Jurkat cells were treated with increasing concentrations of portimine A and analogs for 24 hours. All presented data as mean of biological replicated experiments (n=3). […] Jurkat cells were treated with portimine A or analogs for 12 hours at 10 nM. […]

For the next assay, the system named is A673. The assay is described as follows: Broad cell line profiling, A673. Type of assay: cell-based. The following applies: A673, Human Ewings Sarcoma; read-out: PA IC50. The source says:
• A panel of human and mouse cancer cell types used to assess the breadth of PA activity, including multiple therapy resistant metastatic mesenchymal tumor cell lines and primary glioblastoma patient-derived metastatic stem/tumor initiating cell populations.

The structures appear in SMILES notation.

Usually IC50 stands for the concentration at which inhibition is half-maximal. As to `C=CC1=C[C@@H]2[C@@H]3O[C@]4(CC[C@H](O4)C(C)C[C@@H](O)C3=O)CC(O)C3=NCC[C@@]32CC1` (some centres unmarked) [PA, portimine A], the “anti-tumor activity, HT-1080 fibrosarcoma xenograft model” value in the assay with HT-1080 fibrosarcoma is given as “Potent anti-tumor activity”. In addition, in the assay on A673, the IC50 worked out at 2.5 nM.
